Test results: patent publication US5298622A, “Spiroindane opiate analogs” (priority 1993, dated 1994)
Non-standard residues stand in square brackets, D forms with d. Residues, ends and D or L forms follow the SMILES beside them. *: point of attachment. Tyr(Nα,Nα-allyl2) = C=CCN(CC=C)[C@@H](Cc1ccc(O)cc1)C(=O)*; Aib = CC(C)(N)C(=O)O

What was measured:
[1] = tested on: mouse vas deferens (MVD), delta opioid receptor; assay: Mouse vas deferens (MVD) assay, agonism; type: cell-based; settings: % Inhibition at 1000 nM (footnote 4); for inhibition at 1 µM: Mus musculus
Description: (§1) 2. Mouse Vas (MVD). This assay was performed according to the description by G. Henderson et al., Brit. J. Pharmacol., 46, 764 (1972). Both vasa deferentia were dissected out of mice and mounted singly through two platinum ring electrodes in a 10 ml organ bath. The bath contained Krebs bicarbonate solution that was continuously bubbled with 95% O2 and 5% CO2. The organ bath was maintained at 37° C. The tissue was attached to an isometric transducer and stimulated transmurally with rectangular pulses ([…], 1 ms duration, supramaximal voltage). Drugs were added cumulatively to the bath in 10- to 50-μl amounts and washed out after noting their maximum effect.
(§2) Concentration-response curves were obtained in the absence (control) and the presence of the antagonist are expressed as IC50 values. The IC50 ratio represents the IC50 in the presence of the antagonist divided by the control IC50 value in the same tissue. Therefore, a high IC50 ratio represents a correspondingly high degree of antagonism at a particular receptor. This IC50 ratio was employed to calculate the Ke value using the equation Ke=[antagonist]/(IC50 ratio-1). Therefore, a low Ke represents a correspondingly high degree of binding at a particular receptor.

mu opioid receptor = biological target: T1, mu opioid receptor (Cavia porcellus, UniProt A0ACM8Q262); assay: GPI assay, antagonism of morphine (mu); type: cell-based, guinea pig; settings: antagonist 100 nM, 15 min; for Kb: read-out: GPI Antagonism Ke (Morphine), Ke=[antagonist]/(IC50 ratio-1); for GPI Antagonism IC50 Ratio (Morphine): agonist morphine (mu)
T1 construct: antagonism of morphine
Description: (§3) 1. Guinea Pig Ileal Longitudinal Muscle (GPI). Ilea from guinea pigs were taken approximately 10 cm from the ileocecal junction, and a strip of longitudinal muscle with the myenteric plexus attached was prepared by the method of H. B. Rang et al., Brit. J. Pharmacol., 22, 356 (1964). A 1 cm portion of this strip was then mounted between two platinum electrodes placed in a 10 ml organ bath and connected to an isometric transducer; contractions were recorded on a polygraph. Contractions of the ileal strip were initiated by supramaximal rectangular pulses in all preparations (80 V of 0.5 ms duration at a frequency of 0.1 Hz). Krebs bicarbonate solution containing 1.25 μM chlorpheniramine maleate was the bathing solution and was continuously bubbled with 95% O2 and 5% CO2. The organ bath was maintained at 36°-37° C. The longitudinal muscle strip was allowed to equilibrate with continuous stimulation for a minimum of 90 min. Cumulative concentration-response curves were determined after drugs were added to the bath in 10- to 50-μl amounts and washed out with two 10 ml portions of buffer after noting their maximum effects.
as §2

[2] = tested on: Guinea Pig Ileal Longitudinal Muscle (GPI), mu opioid receptor; assay: cells; type: cell-based
Description: as §3, §2

kappa opioid receptor = biological target: T2, kappa opioid receptor (Cavia porcellus, UniProt P41144); assay: GPI assay, antagonism of ethylketazocine (EK, kappa); type: cell-based, guinea pig; settings: antagonist 100 nM, 15 min; agonist ethylketazocine (kappa)
T2 construct: a strip of longitudinal muscle with the myenteric plexus attached was prepared; from tissue; host or cells: guinea pig ileum, longitudinal muscle strip with myenteric plexus
Description: as §3
Concentration-response curves were obtained in the absence (control) and the presence of the antagonist are expressed as IC50 values. The IC50 ratio represents the IC50 in the presence of the antagonist divided by the control IC50 value in the same tissue. […]

delta opioid receptor [3] = biological target: T3, delta opioid receptor (Mus musculus, UniProt P32300); assay: MVD assay, antagonism of DADLE (delta); type: cell-based; settings: for MVD Antagonism IC50 Ratio (DADLE): antagonist 100 nM, 15 min, agonist DADLE (delta); for Kb: read-out: MVD Antagonism Ke (DADLE); for δ-antagonist activity (in words): δ-selective agonist
T3 construct: Both vasa deferentia were dissected out of mice; from tissue; host or cells: mouse vas deferens
Description: as §1, §2

rat model of alcoholism = settings: J. C. Froehlich et al. 1990; cited from earlier work
[4] = tested on: rats selectively bred for high voluntary ethanol drinking; settings: Ser. No. 07/750,109; cited from earlier work
delta opioid receptor [5] = settings: U.S. Pat. No. 4,816,586; cited from earlier work
recovering alcoholics = settings: J. R. Volpicelli et al. 1990; cited from earlier work
ethanol drinking = settings: J. C. Froehlich et al. 1991; cited from earlier work
[6] = GPI, % Inhibition at 1000 nM (footnote 4)

T3 sequence (P32300 whole entry): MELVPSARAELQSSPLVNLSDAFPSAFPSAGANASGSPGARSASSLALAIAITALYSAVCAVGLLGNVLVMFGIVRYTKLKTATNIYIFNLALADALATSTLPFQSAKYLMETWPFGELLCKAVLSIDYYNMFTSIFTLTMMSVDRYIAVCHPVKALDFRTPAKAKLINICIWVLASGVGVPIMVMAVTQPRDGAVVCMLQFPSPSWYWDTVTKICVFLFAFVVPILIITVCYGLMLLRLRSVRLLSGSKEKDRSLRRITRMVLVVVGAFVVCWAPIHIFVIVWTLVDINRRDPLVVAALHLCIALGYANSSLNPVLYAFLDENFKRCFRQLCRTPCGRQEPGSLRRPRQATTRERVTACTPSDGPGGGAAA
T1 sequence (A0ACM8Q262 1-400): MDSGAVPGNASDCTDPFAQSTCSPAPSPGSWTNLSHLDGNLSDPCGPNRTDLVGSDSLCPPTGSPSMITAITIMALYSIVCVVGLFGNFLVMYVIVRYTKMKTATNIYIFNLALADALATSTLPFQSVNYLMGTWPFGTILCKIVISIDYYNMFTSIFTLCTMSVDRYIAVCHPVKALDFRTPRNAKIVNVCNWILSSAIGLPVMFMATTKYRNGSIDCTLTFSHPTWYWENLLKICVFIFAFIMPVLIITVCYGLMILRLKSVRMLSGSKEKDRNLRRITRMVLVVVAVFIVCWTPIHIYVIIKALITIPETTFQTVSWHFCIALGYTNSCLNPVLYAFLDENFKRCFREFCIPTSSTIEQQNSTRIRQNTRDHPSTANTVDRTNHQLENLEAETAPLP
T2 sequence (P41144 whole entry): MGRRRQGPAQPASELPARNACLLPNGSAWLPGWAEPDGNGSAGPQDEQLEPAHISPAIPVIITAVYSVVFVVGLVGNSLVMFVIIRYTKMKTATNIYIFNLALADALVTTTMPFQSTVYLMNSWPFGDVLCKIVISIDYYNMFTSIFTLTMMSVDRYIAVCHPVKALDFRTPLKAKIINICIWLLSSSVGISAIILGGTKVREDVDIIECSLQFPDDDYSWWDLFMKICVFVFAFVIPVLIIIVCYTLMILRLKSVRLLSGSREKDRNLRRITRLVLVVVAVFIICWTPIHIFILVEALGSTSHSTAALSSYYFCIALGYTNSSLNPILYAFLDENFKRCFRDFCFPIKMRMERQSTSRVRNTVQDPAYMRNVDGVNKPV

7-(4,-Methoxy-2,-spiroindano)naltrexone and 7-(7' -Methoxy-2'-spiroindano)-naltrexone [Compound 3b]
MVD Agonism % Inhibition [1]: 23.1% | Kb (mu opioid receptor): 0.0134 µM | GPI Agonism % Inhibition [2, 6]: -15.0%

O=C1[C@@H]2Oc3c(O)ccc4c3[C@@]23CCN(CC2CC2)[C@H](C4)[C@]3(O)CC12Cc1cccc3cccc(c13)C2 [Compound 3f, 7-(2',3'-Dihydro-2'-spiroperinaphtheno)naltrexone]
GPI Antagonism IC50 Ratio (EK) (kappa opioid receptor): 0.39 | inhibition at 1 µM [1]: 13% | GPI Antagonism IC50 Ratio (Morphine) (mu opioid receptor): 0.89 | inhibition at 1 µM ([2]; Cavia porcellus, GPI, % Inhibition at 1000 nM (footnote 4), read-out: GPI Agonism % Inhibition): 16% | MVD Antagonism IC50 Ratio (DADLE) (delta opioid receptor [3]): 8 | Kb (delta opioid receptor [3]): 0.0149 µM

O=C1[C@@H]2Oc3c(O)ccc4c3[C@@]23CCN(CC2CC2)[C@H](C4)[C@]3(O)CC12Cc1cc3ccccc3cc1C2 [Compound 3d, 7-(5',6'-Benz-2'-spiroindano)naltrexone]
GPI Antagonism IC50 Ratio (EK) (kappa opioid receptor): 0.18 | inhibition at 1 µM [1]: 15.4% | GPI Antagonism IC50 Ratio (Morphine) (mu opioid receptor): 0.97 | agonist activity for μ-receptors (in words) [2]: potent agonist activity | IC50 ([2]; Cavia porcellus, read-out: GPI Agonism IC50): 0.253 µM | GPI Agonism Potency (relative to morphine) ([2]; GPI, morphine = 1): 0.47 | MVD Antagonism IC50 Ratio (DADLE) (delta opioid receptor [3]): 428 | Kb (delta opioid receptor [3]): 0.000234 µM | δ-antagonist activity (in words) (delta opioid receptor [3]): most potent antagonist

C=CCN1CC[C@]23c4c5ccc(O)c4O[C@H]2C(=O)CC[C@@]3(O)[C@H]1C5 [Naloxone]
ethanol and water intake (rat model of alcoholism): suppress ethanol but not water intake

7-(4',5'-Benz-2'-spiroindano)naltrexone and 7-(6',7'-Benz-2'-spiroindano)naltrexone [Compound 3e]
MVD Agonism % Inhibition [1]: 15.6% | GPI Agonism % Inhibition [2, 6]: 20.3%

Oc1ccc2c3c1O[C@H]1c4[nH]c5ccccc5c4C[C@@]4(O)[C@@H](C2)N(CC2CC2)CC[C@]314 [NTI, naltrindole]
ethanol drinking and water intake [4]: unexpectedly prolonged suppression of ethanol drinking without altering water intake | selectivity and potency at delta receptors (delta opioid receptor [5]): highly selective

O=C1CC[C@@]2(O)[C@H]3Cc4ccc(O)c5c4[C@@]2(CCN3CC2CC2)[C@H]1O5 [naltrexone]
incidence of relapse in recovering alcoholics (recovering alcoholics): reduce the incidence of relapse in recovering alcoholics

Oc1ccc2c3c1O[C@H]1c4oc5ccccc5c4C[C@@]4(O)[C@@H](C2)N(CC2CC2)CC[C@]314 [NTB]
ethanol drinking and water intake [4]: unexpectedly prolonged suppression of ethanol drinking without altering water intake

O=C1[C@@H]2Oc3c(O)ccc4c3[C@@]23CCN(CC2CC2)[C@H](C4)[C@]3(O)CC12Cc1ccccc1C2 [Compound 3a]
Kb (mu opioid receptor): 0.041 µM | Kb (delta opioid receptor [3]): 0.00078 µM | δ-antagonist activity (in words) (delta opioid receptor [3]): potent δ-antagonist activity

7-(5'-Methoxy-2'-spiroindano)naltrexone and 7-(6'-Methoxy-2'-spiroindano)naltrexone [Compound 3c]
MVD Agonism % Inhibition [1]: 10.5% | GPI Agonism % Inhibition [2, 6]: -8.8%

C=CCN(CC=C)[C@@H](Cc1ccc(O)cc1)C(=O)NC(C)(C)C(=O)NC(C)(C)C(=O)N[C@@H](Cc1ccccc1)C(=O)N[C@@H](CC(C)C)C(=O)O [ICI 174864, N,N-diallyl-Tyr-Aib-Aib-Phe-Leu-OH] ({Tyr(Nα,Nα-allyl2)}-[Aib][Aib]FL-OH)
duration of action (ethanol drinking): very short duration of action | ethanol drinking (ethanol drinking): strongly inhibits ethanol drinking
